Source: patent US9018214B2, “Bicyclic heterocycle compounds and their uses in therapy” (Astex Therapeutics Limited, priority 2011, dated 2015)
pEC50, pIC50: −log10 of the molar value. Where a name gives a salt, the structure may show the parent alone. Read-outs that look alike come from different tables or passages of the source.

Experiments:
[1] = molecular target: BIR3 domain of human XIAP (residues 252-350) (Homo sapiens (Human), UniProt P98170); assay: XIAP in vitro competitive displacement binding assay (fluorescence polarization); settings: for pIC50: read-out: IC50 or PI Xiap: IC50; for inhibition at 0.04 µM: 1 h, read-out: IC50 or PI Xiap: PI
[2] = test system: EVSA-T (human breast carcinoma); assay: Anti-proliferative activity, Alamar Blue assay, EVSA-T; assay type: cell-based; settings: Homo sapiens, EVSA-T
[3] = molecular target: BIR3 domain of human cIAP-1 (residues 267-363) (Homo sapiens (Human), UniProt Q13490); assay: cIAP-1 in vitro competitive displacement binding assay (fluorescence polarization; Probe A AVPIK(5&6FAM)-amide or Probe B AbuRPFK(5&6FAM)-amide); settings: for inhibition at […]: 3 h, read-out: IC50 or PI cIAP1: PI
[4] = 72 hours, Alamar Blue, read-out: EVSA-T prolif (EC50)
[5] = Probe B AbuRPFK(5&6FAM)-amide, read-out: IC50 or PI cIAP1: IC50
[6] = 72 h, read-out: EVSA-T prolif (EC50)
[7] = read-out: IC50 or PI cIAP1: IC50

Structure (SMILES)	pIC50 [1]	pEC50 [2, 4]	pIC50 [3, 5]	pEC50 [2, 6]	inhibition at […] [3] [%]	further results
C[C@@H]1CN(CC(=O)N2CC(C)(C)c3cnc(Cc4ccc(F)cc4F)cc32)[C@@H](Cn2ccncc2=O)CN1 [Example 195, 1-{[(2R,5R)-1-(2-{6-[(2,4-Difluorophenyl)methyl]-3,3-dimethyl-1H,2H,3H-pyrrolo[3,2-c]pyridin-1-yl}-2-oxoethyl)-5-methylpiperazin-2-yl]methyl}-1,2-dihydropyrazin-2-one dihydrochloride]	7.17	–	–	7.44	96	–
CC[C@@H]1COCCN1C[C@H]1CN[C@H](C)CN1CC(=O)N1CC(C)(C)c2ncc(Cc3ccc(F)cc3)cc21 [Example 254, 2-[(2R,5R)-2-{[(3R)-3-Ethylmorpholin-4-yl]methyl}-5-methylpiperazin-1-yl]-1-{6-[(4-fluorophenyl)methyl]-3,3-dimethyl-1H,2H,3H-pyrrolo[3,2-b]pyridin-1-yl}ethan-1-one dihydrochloride]	–	8.72	–	–	98	inhibition at 0.04 µM [1]: 51%
C[C@@H]1CN(CC(=O)N2CC(C)(C)c3cnc(Cc4ccc(F)cc4F)cc32)[C@@H](CN2CCOC2=O)CN1 [Example 209, 3-{[(2R,5R)-1-(2-{6-[(2,4-Difluorophenyl)methyl]-3,3-dimethyl-1H,2H,3H-pyrrolo[3,2-c]pyridin-1-yl}-2-oxoethyl)-5-methylpiperazin-2-yl]methyl}-1,3-oxazolidin-2-one dihydrochloride]	7.33	–	–	7.72	90	–
COC[C@H]1CN[C@H](C)CN1CC(=O)N1CC(C)(C)c2cnc(-c3ccsc3)cc21 [Example 126, 1-[3,3-Dimethyl-6-(thiophen-3-yl)-1H,2H,3H-pyrrolo[3,2-c]pyridin-1-yl]-2-[(2R,5R)-2-(methoxymethyl)-5-methylpiperazin-1-yl]ethan-1-one dihydrochloride]	6.42	–	–	5.74	–	pEC50 ([2]; 72 h, read-out: EC50, inhibition of cell growth): > 5.00; pIC50 [3, 7]: 7.07
COC[C@H]1CN[C@H](C)CN1CC(=O)N1CC(C)(C)c2cnc(C3=CCCC3)cc21 [Example 90, 1-[6-(Cyclopent-1-en-1-yl)-3,3-dimethyl-1H,2H,3H-pyrrolo[3,2-c]pyridin-1-yl]-2-[(2R,5R)-2-(methoxymethyl)-5-methylpiperazin-1-yl]ethan-1-one, hydrochloride salt]	6.57	6.48	7.10	–	–	–
C[C@@H]1CN(CC(=O)N2CC(C)(C)c3cnc(Cc4ccc(F)cc4)cc32)[C@@H](CN2CCOC[C@H]2C)CN1 [Example 251, 1-{6-[(4-Fluorophenyl)methyl]-3,3-dimethyl-1H,2H,3H-pyrrolo[3,2-c]pyridin-1-yl}-2-[(2R,5R)-5-methyl-2-{[(3R)-3-methylmorpholin-4-yl]methyl}piperazin-1-yl]ethan-1-one dihydrochloride]	–	9.19	–	–	99	inhibition at 0.04 µM [1]: 68%
COC[C@H]1CN[C@H](C)CN1CC(=O)N1CC(C)(C)c2cnc(C#N)cc21 [Example 103, 1-{2-[(2R,5R)-2-(Methoxymethyl)-5-methylpiperazin-1-yl]acetyl}-3,3-dimethyl-1H,2H,3H-pyrrolo[3,2-c]pyridine-6-carbonitrile]	6.38	–	–	–	–	inhibition at 10 µM ([2]; at 10 μM, read-out: EVSA-T prolif: % inhibition): 12%; pIC50 [3]: > 6.00; pIC50 [3, 7]: 6.06
C[C@@H]1CN(CC(=O)N2CC(C)(C)c3ncc(C(F)(F)C4CCC4)cc32)[C@@H](CN2CCCC2=O)CN1 [Example 226, 1-{[(2R,5R)-1-{2-[6-(Cyclobutyldifluoromethyl)-3,3-dimethyl-1H,2H,3H-pyrrolo[3,2-b]pyridin-1-yl]-2-oxoethyl}-5-methylpiperazin-2-yl]methyl}pyrrolidin-2-one dihydrochloride]	7.34	–	–	6.40	–	pIC50 [3]: > 6.00; pIC50 [3, 7]: 7.68
C[C@@H]1CN(CC(=O)N2CC(C)(C)c3ncc(Cc4ccc(F)cc4)cc32)[C@@H](CN2C[C@@H](C)O[C@@H](C)C2)CN1 [Example 243, 2-[(2R,5R)-2-{[(2R,6S)-2,6-Dimethylmorpholin-4-yl]methyl}-5-methylpiperazin-1-yl]-1-{6-[(4-fluorophenyl)methyl]-3,3-dimethyl-1H,2H,3H-pyrrolo[3,2-b]pyridin-1-yl}ethan-1-one dihydrochloride]	7.33	–	–	7.60	100	–
C[C@@H]1CN(CC(=O)N2CC(C)(C)c3ncc(Cc4ccccc4F)cc32)[C@@H](CN2CCCC2=O)CN1 [Example 249, 1-{[(2R,5R)-1-(2-{6-[(2-Fluorophenyl)methyl]-3,3-dimethyl-1H,2H,3H-pyrrolo[3,2-b]pyridin-1-yl}-2-oxoethyl)-5-methylpiperazin-2-yl]methyl}pyrrolidin-2-one hydrochloride]	–	8.00	–	–	–	inhibition at 0.04 µM ([1]; @ 0.04 μM): 56%; inhibition at […] ([3]; Probe B, @ 0.012 μM): 90%
C[C@@H]1CN(CC(=O)N2CC(C)(C)c3ncc(Cc4ccc(F)cc4F)cc32)[C@@H](CN2CCOC2=O)CN1 [Example 200, 3-{[(2R,5R)-1-(2-{6-[(2,4-Difluorophenyl)methyl]-3,3-dimethyl-1H,2H,3H-pyrrolo[3,2-b]pyridin-1-yl}-2-oxoethyl)-5-methylpiperazin-2-yl]methyl}-1,3-oxazolidin-2-one dihydrochloride]	7.13	–	–	8.06	96	–
COC[C@H]1CN[C@H](C)CN1CC(=O)N1CC(C)(C)c2cnc(CC3CCCCC3)cc21 [Example 79, 1-[6-(Cyclohexylmethyl)-3,3-dimethyl-1H,2H,3H-pyrrolo[3,2-c]pyridin-1-yl]-2-[(2R,5R)-2-(methoxymethyl)-5-methylpiperazin-1-yl]ethan-1-one]	6.00	6.31	–	–	–	pIC50 [3, 7]: 7.60

More lines, main results first:

pIC50 [1]	pEC50 [2, 4]	pIC50 [3, 5]	Structure (SMILES)	pEC50 [2, 6]	inhibition at […] [3] [%]	further results
5.92	5.32	6.57	COC[C@H]1CN[C@H](C)CN1CC(=O)N1CC(C)(C)c2cnc(C3CCCC3)cc21 [Example 92, 1-{6-Cyclopentyl-3,3-dimethyl-1H,2H,3H-pyrrolo[3,2-c]pyridin-1-yl}-2-[(2R,5R)-2-(methoxymethyl)-5-methylpiperazin-1-yl]ethan-1-one, hydrochloride salt]	–	–	–
7.10	8.77	–	Cc1nc(C)n(C[C@H]2CN[C@H](C)CN2CC(=O)N2CC(C)(C)c3cnc(Cc4ccc(F)cc4F)cc32)n1 [Example 206, 1-{6-[(2,4-Difluorophenyl)methyl]-3,3-dimethyl-1H,2H,3H-pyrrolo[3,2-c]pyridin-1-yl}-2-[(2R,5R)-2-[(dimethyl-1H-1,2,4-triazol-1-yl)methyl]-5-methylpiperazin-1-yl]ethan-1-one hydrochloride]	–	–	inhibition at […] ([3]; Probe B, @ 0.012 μM): 97%
6.19	5.62	–	C[C@@H]1CN(CC(=O)N2CC(C)(C)c3ccc(S(=O)(=O)c4ccccc4)cc32)CCN1 [Example 43, 1-(6-Benzenesulfonyl-3,3-dimethyl-2,3-dihydro-indol-1-yl)-2-((R)-3-methyl-piperazin-1-yl)-ethanone hydrochloride salt]	–	–	pIC50 ([3]; Probe A AVPIK(5&6FAM)-amide, read-out: IC50 or PI cIAP1: IC50): 6.35
6.77	6.80	8.05	COC[C@H]1CN[C@H](C)CN1CC(=O)N1CC(C)(C)c2cnc(Cc3ccccc3F)cc21 [Example 77, 1-{6-[(2-Fluorophenyl)methyl]-3,3-dimethyl-1H,2H,3H-pyrrolo[3,2-c]pyridin-1-yl}-2-[(2R,5R)-2-(methoxy-methyl)-5-methyl-piperazin-1-yl]ethan-1-one]	–	–	–
7.35	6.57	7.85	C[C@@H]1CN(CC(=O)N2CC(C)(C)c3cnc(C(F)(F)C4CC4)cc32)[C@@H](CN2CCCC2=O)CN1 [Example 212, 1-{[(2R,5R)-1-{2-[6-(Cyclopropyldifluoromethyl)-3,3-dimethyl-1H,2H,3H-pyrrolo[3,2-c]pyridin-1-yl]-2-oxoethyl}-5-methylpiperazin-2-yl]methyl}pyrrolidin-2-one hydrochloride]	–	–	pIC50 [3]: > 6.00
6.41	6.25	7.00	COC[C@H]1CN[C@H](C)CN1CC(=O)N1CC(C)(C)c2cnc(Oc3ccccc3)cc21 [Example 74, 1-(3,3-Dimethyl-6-phenoxy-2,3-dihydro-pyrrolo[3,2-c]pyridin-1-yl)-2-((2R,5R)-2-methoxymethyl-5-methyl-piperazin-1-yl)-ethanone hydrochloride salt]	–	–	–
6.82	6.89	–	COC[C@H]1CN[C@H](C)CN1CC(=O)N1CC(C)(C)c2c[n+]([O-])c(Cc3ccc(F)cc3F)cc21 [Example 166, 6-[(2,4-Difluorophenyl)methyl]-1-{2-[(2R,5R)-2-(methoxymethyl)-5-methylpiperazin-1-yl]acetyl}-3,3-dimethyl-1H,2H,3H-1,5λ^5-pyrrolo[3,2-c][1λ^5]pyridin-5-one hydrochloride]	–	–	inhibition at […] ([3]; Probe B, @ 0.012 μM): 76%
7.00	5.06	6.70	C[C@@H]1CN(CC(=O)N2CC(C)(c3ccccc3)c3ccc(C#N)cc32)[C@@H](Cn2cccn2)CN1 (stereo partly drawn) [Example 143, 3-Methyl-1-{2-[(2R,5R)-5-methyl-2-(1H-pyrazol-1-ylmethyl)piperazin-1-yl]acetyl}-3-phenyl-2,3-dihydro-1H-indole-6-carbonitrile hydrochloride]	–	–	–
